In patent publication US20030109503A1, “Pharmaceutical formulations comprising clavulanic acid alone or in combination with other beta-lactam antibiotics” (SmithKline Beecham p.l.c., priority 1995, published 2003):
Read-outs that look alike come from different tables or passages of the source.

What was measured:
[1] = test system: plasmid mediated β-lactamase producing strains of K. pneumoniae; test: MIC in agar, serial dilution, alone or with constant clavulanic acid; format: cell-based, Klebsiella pneumoniae
Protocol: (§1) Determinations of the minimum inhibitory concentration (MIC) were performed in agar using serial dilutions of the test compounds alone or in the presence of constant concentrations of clavulanic acid (2 or 4 μg/ml). The agar used was Mueller Hinton (BBL) supplemented with 5% lysed horse blood in the case of H. influenzae and M. catarrhalis, except for B. fragilis where Wilkins-Chalgren agar (Oxoid) was used. A multipoint inoculator was used to drop 1 μl of undiluted culture of S. aureus, 10-fold dilutions of B. fragilis, H. influenzae and M. catarrhalis and 100-fold dilutions of E. coli and K. pneumoniae onto the surface of the agar, to give an inoculum of approximately 10^4 to 10^5 cfu/spot.

[2] = test system: β-lactamase producing strains of M. catarrhalis; test: as above; format: cell-based, Moraxella catarrhalis
Protocol: as §1

[3] = test system: β-lactamase producing strains of H. influenzae; test: as above; format: cell-based
Protocol: as §1

[4] = test system: β-lactamase producing strains of S. aureus; test: as above; format: cell-based
Protocol: as §1

B. fragilis = test: MIC in agar (Wilkins-Chalgren), serial dilution, alone or with constant clavulanic acid; format: cell-based, Bacteroides fragilis
Protocol: as §1

[5] = test system: plasmid mediated β-lactamase producing strains of E. coli; test: MIC in agar, serial dilution, alone or with constant clavulanic acid; format: cell-based, Escherichia coli
Protocol: as §1

[6] = Gmean MIC values reduced considerably
[7] = clavulanic acid at 2 or 4 μg/ml

Question: What does the source list for `N[C@@H](C(=O)N[C@@H]1C(=O)N2C(C(=O)O)=C(Cl)CS[C@H]12)c1ccccc1` [cefaclor]?
Answer: MIC90 ([1]; Klebsiella pneumoniae): 256 µg/mL; MIC ([1]; Klebsiella pneumoniae, read-out: Gmean (geometric mean MIC)): 17.7 µg/mL; MIC ([1]; Klebsiella pneumoniae, read-out: MIC75): 256 µg/mL; MIC range ([2]; M.catarrhalis (14 strains), CA2/CA4 = constant 2 or 4 μg/ml clavulanic acid): 1 to 8 µg/mL; MIC90 ([2]; Moraxella catarrhalis, M.catarrhalis (14 strains), CA2/CA4 = constant 2 or 4 μg/ml clavulanic acid): 8 µg/mL; MIC ([2]; Moraxella catarrhalis, M.catarrhalis (14 strains), CA2/CA4 = constant 2 or 4 μg/ml clavulanic acid, read-out: Gmean (geometric mean MIC)): 4.88 µg/mL; MIC ([2]; Moraxella catarrhalis, M.catarrhalis (14 strains), CA2/CA4 = constant 2 or 4 μg/ml clavulanic acid, read-out: MIC75): 8 µg/mL; MIC range ([3]; H.influenzae (15 strains), CA2/CA4 = constant 2 or 4 μg/ml clavulanic acid): 2 to 16 µg/mL; MIC90 ([3]; Haemophilus influenzae, H.influenzae (15 strains), CA2/CA4 = constant 2 or 4 μg/ml clavulanic acid): 16 µg/mL; MIC ([3]; Haemophilus influenzae, H.influenzae (15 strains), CA2/CA4 = constant 2 or 4 μg/ml clavulanic acid, read-out: Gmean (geometric mean MIC)): 7.64 µg/mL; MIC ([3]; Haemophilus influenzae, H.influenzae (15 strains), CA2/CA4 = constant 2 or 4 μg/ml clavulanic acid, read-out: MIC75): 16 µg/mL; MIC range ([4]; S.aureus P+ (10 strains), CA2/CA4 = constant 2 or 4 μg/ml clavulanic acid): 1 to 256 µg/mL; MIC90 ([4]; Staphylococcus aureus, S.aureus P+ (10 strains), CA2/CA4 = constant 2 or 4 μg/ml clavulanic acid): 64 µg/mL; MIC ([4]; Staphylococcus aureus, S.aureus P+ (10 strains), CA2/CA4 = constant 2 or 4 μg/ml clavulanic acid, read-out: Gmean (geometric mean MIC)): 12.4 µg/mL; MIC ([4]; Staphylococcus aureus, S.aureus P+ (10 strains), CA2/CA4 = constant 2 or 4 μg/ml clavulanic acid, read-out: MIC75): 32 µg/mL; MIC ([4]; Staphylococcus aureus, in the presence of 2 μg/ml clavulanic acid, read-out: geometric mean (Gmean) MIC of cefaclor): 1.13 µg/mL; MIC ([4]; Staphylococcus aureus, in the presence of 4 μg/ml clavulanic acid, read-out: geometric mean (Gmean) MIC of cefaclor): 0.73 µg/mL; MIC range (B. fragilis; B.fragilis (19 strains), CA2/CA4 = constant 2 or 4 μg/ml clavulanic acid): 64 to 512 µg/mL; MIC90 (B. fragilis; Bacteroides fragilis, B.fragilis (19 strains), CA2/CA4 = constant 2 or 4 μg/ml clavulanic acid): 128 µg/mL; MIC (B. fragilis; Bacteroides fragilis, B.fragilis (19 strains), CA2/CA4 = constant 2 or 4 μg/ml clavulanic acid, read-out: Gmean (geometric mean MIC)): 151 µg/mL; MIC (B. fragilis; Bacteroides fragilis, B.fragilis (19 strains), CA2/CA4 = constant 2 or 4 μg/ml clavulanic acid, read-out: MIC75): 4 µg/mL; MIC range ([5]; E.coli R+ (11 strains), CA2/CA4 = constant 2 or 4 μg/ml clavulanic acid): 1 to 32 µg/mL; MIC90 ([5]; Escherichia coli): 32 µg/mL; MIC ([5]; Escherichia coli, read-out: Gmean (geometric mean MIC)): 4.32 µg/mL; MIC ([5]; Escherichia coli, read-out: MIC75): 4 µg/mL

Question: Which “effect of clavulanic acid on the activity of cefaclor” value (“effect of clavulanic acid” below) [1, 6] does the source give for `O=C(O)[C@H]1/C(=C/CO)O[C@@H]2CC(=O)N21` [clavulanic acid] here?
Answer: improved

Question: What about the “effect of clavulanic acid” value [2, 7] of the same compound?
Answer: improved the activity of cefaclor

Question: And the “effect of clavulanic acid” value [3, 7]?
Answer: improved the activity of cefaclor

Question: What about the “effect of clavulanic acid” value ([4]; 2 and 4 μg/ml clavulanic acid) of the same compound?
Answer: markedly improved the activity of cefaclor

Question: What about the “effect of clavulanic acid” value (B. fragilis; [7]) of the same compound?
Answer: improved the activity of cefaclor

Question: What about the “effect of clavulanic acid” value [5, 6] of the same compound?
Answer: improved
